According to patent publication US20210283107A1, “Methods to Expand the Spectrum of Gram-Positive Antibiotics” (NORTH CAROLINA STATE UNIVERSITY, priority 2016, published 2021):
Converted amounts (≈) assume the structure as drawn. “And” between values parts separate entries of the source, which are not always exact repeats. Equal entries are not always repeated.

Assays:
[1] = test system: A. baumannii strain 5075 (AB5075); test: Broth microdilution MIC determination of compound alone; assay type: cell-based; details: Acinetobacter baumannii; compound alone; AB5075; read-out: MIC
Method: Our initial screening began by testing a diverse selection of 2-AI compounds from our internal library for their minimal inhibitory concentrations (MIC) against A. baumannii isolate 5075.
(§1) Day Cultures (6 h) were subcultured to 5×10^5 CFU/mL in cation adjusted Mueller-Hinton broth (CAMHB). Aliquots (1 mL) were placed in culture tubes, and compound was added from 100 mM stock solutions, such that the compound concentration equaled the highest concentration tested (200 μM or 64 μg/mL). Samples were then aliquoted (200 μL) into the first row of wells of a 96-well plate, with all remaining wells being filled with 100 μL of initial bacterial subculture. The wells in row one were mixed five times before 100 μL was transferred to the following row (row two). Row two was then mixed five times, and 100 μL was transferred to row three. This processed was repeated until the final row had been mixed. This process provided a serial dilution of the compound. Plates were covered with Glad Press n'Seal and were incubated under stationary conditions at 37° C. for 16 hours. MIC values were recorded as the lowest concentration at which no bacterial growth was observed.

[2] = test system: A. baumannii mutant AB1310; test: MIC against Tn-seq transposon mutant AB1310; assay type: cell-based; details: Acinetobacter baumannii
Method: (§2) During individual MIC screening, two mutants, AB522 and AB1310, were identified due to their increased sensitivity to the three macrolide antibiotics and vancomycin when compared to AB 5075 (Table 17).
as §1

[3] = test system: A. baumannii strain 5075 (AB5075); test: Macrolide sensitization / antibiotic resensitization: antibiotic MIC in presence of compound (broth microdilution); assay type: cell-based, Acinetobacter baumannii; details: AB5075; for MIC: Acinetobacter baumannii, antibiotic alone, no compound (control row), read-out: MIC (μg/mL) of the antibiotic
Method: A. baumannii 5075 was plated on LB agar, then grown in CAMHB for 6-8 h and this culture was used to inoculate fresh CAMHB (5×10^5 CFU/mL). The resulting suspension was aliquoted (5 mL) into culture tubes and compound, from 100 mM DMSO stock, was added. One aliquot was not treated (control). 1 mL of each sample was transferred to a new culture tube and antibiotic was added. Rows 2-12 of a 96-well microtiter plate were filled with 100 μL/well from the remaining 4 mL bacterial subcultures, allowing the concentration of compound to be kept uniform throughout the antibiotic dilution procedure. Samples containing antibiotic were aliquoted (200 μL) into the corresponding first row wells of the microtiter plate. Row 1 wells were mixed 6 to 8 times then 100 μL was withdrawn and transferred to row 2. Row 2 wells were mixed 6 to 8 times, followed by a 100 μL transfer from row 2 to row 3. This procedure was repeated to serially dilute the rest of the rows of the microtiter plate, with the exception of the final row, to which no antibiotic was added (to check for growth of bacteria in the presence of compound alone). The microtiter plate was then covered, placed in a covered damp plastic container and incubated under stationary conditions at 37° C. After 16-18 hrs minimum inhibitory concentration (MIC) values were recorded as the lowest concentration of antibiotic at which there was no visible growth of bacteria. Experiments were carried out in duplicate each time and repeated at least twice.
The difference in antibiotic MIC between the control (no compound) sample, and the samples containing each compound was recorded as the fold-reduction.
Day Cultures (6 h) were subcultured to 5×10^5 CFU/mL in cation adjusted Mueller-Hinton broth (CAMHB). […] One milliliter of the resulting solution was aliquoted into a separate culture tube and was dosed with antibiotic so that the resulting concentration was the highest desirable concentration to be tested. Bacteria treated with antibiotic alone were used as a control. Row one of a 96-well plate was filled with 200 μL of the antibiotic/compound solution, and the remaining rows were filled with 100 μL of the remaining 4 mL bacterial subculture. The wells in row one were mixed five times before 100 μL was transferred to the following row (row two). Row two was then mixed five times, and 100 μL was transferred to row three. This process was repeated until the second to last row had been reached. The last row is left unexposed to antibiotic in order to serve as a negative control. The antibiotic only treated bacteria was plated by aliquoting 200 μL of the treated bacteria into row one and filling the remaining rows with untreated bacteria from the original bacteria subculture. The rows were mixed in the same way as described above. Plates were covered with Glad Press n'Seal and were incubated under stationary conditions at 37° C. for 16 hours. MIC values were recorded as the lowest concentration at which no bacterial growth was observed. Fold reductions were determined by comparison of the compound treated wells with the antibiotic only treated control wells.

[4] = test system: A. baumannii mutant AB522; test: MIC against Tn-seq transposon mutant AB522; assay type: cell-based; details: Acinetobacter baumannii
Method: as §2, §1

[5] = test system: AB5075; test: H33342 accumulation assay (efflux); assay type: cell-based, Acinetobacter baumannii; details: for H33342 accumulation, fluorescence at 355 and 460 nm: 25 μM CCCP, immediately following exposure
Method: In addition to the evaluation of the relationship between compounds 1 and 4 and colistin, the impact of compound 1 on efflux was evaluated using AB5075 and a bisBenzimide H33342 trihydrochloride (H33342) accumulation assay. Using a procedure adapted from Coldham et al. (A 96-well plate fluorescence assay for assessment of cellular permeability and active efflux in Salmonella enterica serovar Typhimurium and Escherichia coli. J Antimicrob Chemother, 2010. 65(8): p. 1655-63) and Richmond et al. (Efflux in Acinetobacter baumannii can be determined by measuring accumulation of H33342 (bis-benzamide). J Antimicrob Chemother, 2013. 68(7): p. 1594-600), the effect of no treatment, a known inhibitor carbonyl cyanide-m-chlorophenyl hydrazone (CCCP), and compound 1 on efflux was analyzed over 30 minutes and in two different treatment variations. Fluorescence was read using excitation and emission filters of 355 and 460 nm, and the values were processed in excel. The first analysis was performed immediately after treating the bacteria with compound 1 at both 10 and 30 μM and CCCP at 25 μM.
The second analysis was performed after exposing the bacteria to compound 1 at 30 μM for 5-hours shaking at 37° C.

[6] = test system: AB 5075; test: Backlight assay for membrane permeability; assay type: cell-based, Acinetobacter baumannii; details: AB5075
Method: The assay was initially performed at 10, 20 and 30 μM with compounds 1 and 4 (Table 16). […] When the concentration is lowered to 20 μM, the percent of membrane disrupted also decreases to 78% and 83% respectively. When further decreasing the concentration to 10 μM, the membrane disruption decreases to 39 and 44% respectively. Due to the similar structure and lack of potentiation activity, compound 25 was screened at 10, 20 and 30 μM to compare membrane permeability with that of active compounds. The percent disruption was less than seen with compounds 1 and 4 being 53, 54 and 60% respectively.

[7] = compound at 30 μM vs antibiotic alone
[8] = in presence of compound at 30 μM
[9] = compound at 60 μM vs antibiotic alone

MIC [1] [µM] | SMILES | Fold reduction (erythromycin MIC) [3, 9] [fold] | also measured
> 200 | CC1(C)CC(=O)N(c2ccc3[nH]c(N)nc3c2)C(=O)C1 | – | –
> 200 | CCCCCCc1ccc(-c2nc(N)[nH]c2CCCCCC)cc1 | – | –
> 200 | CCCCCCCCn1cc(Cc2ccccc2)nc1N | – | –
100 (≈ 56 µg/mL) | CCOc1ccc(Cn2c(CCCCCc3cn(CCNC(=O)c4ccc(C)cc4)nn3)cnc2N)cc1OCC | – | –
– | CC[C@H]1OC(=O)[C@H](C)[C@@H](O[C@H]2C[C@@](C)(OC)[C@@H](O)[C@H](C)O2)[C@H](C)[C@@H](O[C@@H]2O[C@H](C)C[C@H](N(C)C)[C@H]2O)[C@](C)(O)C[C@@H](C)CN(C)[C@H](C)[C@@H](O)[C@]1(C)O [Azithromycin, azithromycin] | – | MIC [2]: 4 µg/mL (≈ 5.34 µM); MIC [3]: 64 µg/mL; MIC [4]: 4 µg/mL (≈ 5.34 µM)
– | N#CC(C#N)=NNc1cccc(Cl)c1 [CCCP, carbonyl cyanide-m-chlorophenyl hydrazone, reference compound] | – | H33342 accumulation, fluorescence at 355 and 460 nm ([5]; time 0 minutes): 42,713.8 ± 10,482.1; H33342 accumulation, fluorescence at 355 and 460 nm ([5]; time 10 minutes): 50,618.3 ± 9,944.3; H33342 accumulation, fluorescence at 355 and 460 nm ([5]; time 20 minutes): 50,928.8 ± 6,944.8; H33342 accumulation, fluorescence at 355 and 460 nm ([5]; time 30 minutes): 48,907.2 ± 4,873; change in H33342 fluorescence over 30 minutes ([5]; immediately after treating, compound 1 at both 10 and 30 μM, CCCP at 25 μM): a notable increase in fluorescence
100 | Cl.Nc1nc(-c2ccc(NC(=O)/C=C/c3ccccc3)cc2)c[nH]1 [Compound 2] | – | Fold reduction (azithromycin MIC) [3, 7]: 4 fold; Fold reduction (clarithromycin MIC) [3, 7]: 32 fold; Fold reduction (erythromycin MIC) [3, 7]: 8 fold; Azithromycin MIC [3, 8]: 16 µg/mL
> 200 | CCCCCC(=O)Nc1ccc(-c2c[nH]c(N)n2)cc1.Cl [Compound 3] | 16 | Fold reduction (azithromycin MIC) [3, 9]: 8 fold; Fold reduction (clarithromycin MIC) [3, 9]: 32 fold; Azithromycin MIC ([3]; in presence of compound at 60 μM): 8 µg/mL
100 | CCCCCCCCCCCNC(=O)CCCc1c[nH]c(C)n1.Cl [Compound 5] | – | Fold reduction (azithromycin MIC) [3, 7]: 8 fold; Fold reduction (clarithromycin MIC) [3, 7]: 256 fold; Fold reduction (erythromycin MIC) [3, 7]: 16 fold; Azithromycin MIC [3, 8]: 8 µg/mL
> 200 | CCCCCCCCCCNC(=O)Cn1cc(CCCCCc2c[nH]c(N)n2)nn1.Cl [Compound 6] | 4 | –
200 (≈ 117 µg/mL) | CCCCCc1ccc(C(=O)NCCn2cc(CCCCCc3cnc(N)n3Cc3ccc(CCCC)cc3)nn2)cc1 [Compound 7] | 4 | –
100 (≈ 33.2 µg/mL) | Nc1nc(-c2ccc(NC(=O)c3cc(F)c(F)c(F)c3)cc2)c[nH]1 [Compound 8] | – | Fold reduction (clarithromycin MIC) [3, 7]: 32 fold; Fold reduction (erythromycin MIC) [3, 7]: 8 fold
100 (≈ 34.7 µg/mL) | Nc1nc(-c2ccc(NC(=O)c3ccc(Cl)c(Cl)c3)cc2)c[nH]1 [Compound 9] | – | Fold reduction (clarithromycin MIC) [3, 7]: 64 fold; Fold reduction (erythromycin MIC) [3, 7]: 16 fold
> 200 | CCCCCCC(=O)Nc1cccc(-c2c[nH]c(N)n2)c1.Cl [Compound 11] | 4 | –
100 | CCCCCCCCCCn1c(CCCCCC)cnc1N.Cl [Compound 12] | 4 | –
200 | Cl.Nc1ncc(CCCCCc2ccccc2)[nH]1 [Compound 13] | – | Fold reduction (erythromycin MIC) [3, 7]: 4 fold
> 200 | Nc1nc(-c2ccc(NC(=O)c3cccc(F)c3)cc2)c[nH]1 [Compound 14] | 8 | –
200 (≈ 62.9 µg/mL) | Nc1nc(-c2ccc(NC(=O)c3cc(F)cc(F)c3)cc2)c[nH]1 [Compound 15] | 8 | –
> 200 | Nc1nc(-c2ccc(NC(=O)c3ccc(Cl)cc3)cc2)c[nH]1 [Compound 16] | 4 | –
> 200 | Nc1nc(-c2ccc(NC(=O)c3c(F)c(F)c(F)c(F)c3F)cc2)c[nH]1 [Compound 17] | 4 | –
> 200 | Nc1nc(-c2ccc(NC(=O)c3ccc(Br)cc3)cc2)c[nH]1 [Compound 18] | 4 | –
> 200 | Nc1nc(-c2ccc(NC(=O)c3cccc(Br)c3)cc2)c[nH]1 [Compound 19] | 8 | –
> 200 | Nc1nc(-c2ccc(NC(=O)c3ccc(Cl)cc3Cl)cc2)c[nH]1 [Compound 20] | 4 | –
> 200 | Nc1nc(-c2ccc(NC(=O)c3ccc(Br)cc3F)cc2)c[nH]1 [Compound 21] | 8 | –
> 200 | Nc1nc(-c2ccc(NC(=O)c3ccccc3F)cc2)c[nH]1 [Compound 22] | – | –
50 (≈ 17.3 µg/mL) | Nc1nc(-c2ccc(NC(=O)c3ccc(C(F)(F)F)cc3)cc2)c[nH]1 [Compound 23] | – | –
25 (≈ 9.11 µg/mL) | Nc1nc(-c2ccc(NC(=O)c3ccc(C(F)(F)F)c(F)c3)cc2)c[nH]1 [Compound 24] | – | –
> 200 | Nc1nc(-c2ccc(NC(=O)c3ccc(I)cc3)cc2)c[nH]1 [Compound 25] | – | Disrupted bacterial membrane (%) ([6]; compound at 10 μM): 53% and 53.7%; Disrupted bacterial membrane (%) ([6]; compound at 20 μM): 54%; Disrupted bacterial membrane (%) ([6]; compound at 30 μM): 60%
– | CC[C@H]1OC(=O)[C@H](C)[C@@H](O[C@H]2C[C@@](C)(OC)[C@@H](O)[C@H](C)O2)[C@H](C)[C@@H](O[C@@H]2O[C@H](C)C[C@H](N(C)C)[C@H]2O)[C@](C)(O)C[C@@H](C)C(=O)[C@H](C)[C@@H](O)[C@]1(C)O [Erythromycin] | – | MIC [2]: 4 µg/mL (≈ 5.45 µM); MIC [3]: 32 µg/mL; MIC [4]: 2 µg/mL (≈ 2.73 µM)
